Data as given in the supplement of paper PMC11061612.

Tests used:
Test in all cases: combination Emax (second highest fraction inhibited in the dose matrix, 72 h); higher = more inhibition; extreme values may be limits of the assay
[1] = system: MS-1 (Small Cell Lung Carcinoma)
Method in brief: (§1)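 After 24 hours at 37°C and 5% CO2 in 1536-well plates, cells in DMEM/F12 or RPMI plus 10% FBS received two-drug dose matrices for 72 hours. Viability came from CellTiter-Glo 2.0 luminescence and was scaled as inhibition, anchored at 0 by vehicle wells and at 1 by blank wells. Combination Emax is taken as the second-highest inhibition in the matrix, and Bliss excess as the observed combination effect less EA + EB − EA·EB, with EA and EB the single-agent effects.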

[2] = system: KP-4 (Pancreatic Carcinoma)
Method in brief: as §1

[3] = system: NCI-H1963 (Small Cell Lung Carcinoma)
Method in brief: as §1

[4] = system: Raji (Burkitt's Lymphoma)
Method in brief: as §1

[5] = system: CPC-N (Small Cell Lung Carcinoma)
Method in brief: as §1

[6] = system: SCC-4 (Oral Cavity Carcinoma)
Method in brief: as §1

[7] = system: SAT (Head and Neck Carcinoma)
Method in brief: as §1

[8] = system: P30-OHK (B-Lymphoblastic Leukemia)
Method in brief: as §1

SK-N-SH (Neuroblastoma) = system: SK-N-SH (Neuroblastoma)
Method in brief: as §1

[9] = system: OAW-28 (Ovarian Carcinoma)
Method in brief: as §1

[10] = system: DBTRG-05MG (Glioblastoma)
Method in brief: as §1

NCI-H226 (Mesothelioma) = system: NCI-H226 (Mesothelioma)
Method in brief: as §1

[11] = system: TUR (Acute Myeloid Leukemia)
Method in brief: as §1

[12] = system: ZR-75-30 (Breast Carcinoma)
Method in brief: as §1

[13] = system: NAMALWA (Burkitt's Lymphoma)
Method in brief: as §1

[14] = system: C-33-A (Cervical Carcinoma)
Method in brief: as §1

[15] = system: PA-TU-8988T (Pancreatic Carcinoma)
Method in brief: as §1

[16] = system: NMC-G1 (Low Grade Glioma)
Method in brief: as §1

WM35 (Melanoma) = system: WM35 (Melanoma)
Method in brief: as §1

[17] = system: T84 (Colorectal Carcinoma)
Method in brief: as §1

SMILES | combination Emax [1] | combination Emax [2] | combination Emax [3] | combination Emax [4] | combination Emax [5] | combination Emax [6] | combination Emax [7] | combination Emax [8] | combination Emax (SK-N-SH (Neuroblastoma)) | combination Emax [9] | combination Emax [10] | combination Emax (NCI-H226 (Mesothelioma)) | combination Emax [11] | combination Emax [12] | combination Emax [13] | combination Emax [14] | combination Emax [15] | combination Emax [16] | combination Emax (WM35 (Melanoma)) | combination Emax [17]
CC1(C)CCC(CN2CCN(c3ccc(C(=O)NS(=O)(=O)c4ccc(NCC5CCOCC5)c([N+](=O)[O-])c4)c(Oc4cnc5[nH]ccc5c4)c3)CC2)=C(c2ccc(Cl)cc2)C1 [Venetoclax] + COc1cc(Nc2ncc3c(n2)-c2ccc(Cl)cc2C(c2c(F)cccc2OC)=NC3)ccc1C(=O)O [Alisertib] (first compound max 1 µM, 7x7, partner max 10 µM) | 0.392 | 0.44 | 0.949 | 0.252 | 0.835 | 0.571 | 0.545 | 1 | 0.902 | 0.476 | 0.279 | 0.224 | 0.628 | 0.137 | 0.661 | 0.446 | 0.403 | 0.244 | 0.152 | 0.315
CC1(C)CCC(CN2CCN(c3ccc(C(=O)NS(=O)(=O)c4ccc(NCC5CCOCC5)c([N+](=O)[O-])c4)c(Oc4cnc5[nH]ccc5c4)c3)CC2)=C(c2ccc(Cl)cc2)C1 [Venetoclax] + C[C@@H]1COCCN1C2=NC(=NC(=C2)C3(CC3)[S@](=N)(=O)C)C4=C5C=CNC5=NC=C4 [AZD6738] (first compound max 1 µM, 7x7, partner max 10 µM) | 0.702 | 0.418 | 0.985 | 0.733 | 0.936 | 0.585 | 0.423 | 1 | 0.915 | 0.472 | 0.288 | 0.243 | 0.963 | 0.191 | 0.889 | 0.92 | 0.345 | 0.461 | 0.269 | 0.702
CC1(C)CCC(CN2CCN(c3ccc(C(=O)NS(=O)(=O)c4ccc(NCC5CCOCC5)c([N+](=O)[O-])c4)c(Oc4cnc5[nH]ccc5c4)c3)CC2)=C(c2ccc(Cl)cc2)C1 [Venetoclax] + C[C@@H](Nc1cc(F)cc(F)c1)c1cc(C(=O)N(C)C)cc2c(=O)cc(N3CCOCC3)oc12 [AZD8186] (first compound max 1 µM, 7x7, partner max 3 µM) | 0.32 | 0.421 | 0.758 | 0.172 | 0.835 | 0.614 | 0.345 | 0.794 | 0.403 | 0.331 | 0.12 | 0.0928 | 0.209 | 0.24 | 0.428 | 0.154 | 0.257 | 0.171 | 0.0866 | 0.101
CC1(C)CCC(CN2CCN(c3ccc(C(=O)NS(=O)(=O)c4ccc(NCC5CCOCC5)c([N+](=O)[O-])c4)c(Oc4cnc5[nH]ccc5c4)c3)CC2)=C(c2ccc(Cl)cc2)C1 [Venetoclax] + Cc1cc2ncnn2cc1Nc1ncc2c(n1)n(C1CCOCC1)c(=O)n2C [AZD7648] (first compound max 1 µM, 7x7, partner max 10 µM) | 0.445 | 0.126 | 0.744 | 0.152 | 0.84 | 0.235 | 0.284 | 0.569 | 0.543 | 0.152 | 0.209 | 0.171 | 0.102 | 0.123 | 0.459 | 0.401 | 0.238 | 0.192 | 0.204 | 0.0827
CC1(C)CCC(CN2CCN(c3ccc(C(=O)NS(=O)(=O)c4ccc(NCC5CCOCC5)c([N+](=O)[O-])c4)c(Oc4cnc5[nH]ccc5c4)c3)CC2)=C(c2ccc(Cl)cc2)C1 [Venetoclax] + Cn1cnc2c(F)c(Nc3ccc(Br)cc3Cl)c(C(=O)NOCCO)cc21 [Selumetinib] (first compound max 1 µM, 7x7, partner max 3 µM) | 0.396 | 0.131 | 0.76 | 0.0995 | 0.734 | 0.164 | 0.566 | 0.303 | 0.553 | 0.284 | 0.285 | 0.0891 | 0.179 | 0.159 | 0.286 | 0.324 | 0.272 | 0.175 | 0.757 | 0.16
